Values of other authors in PMC11011029, “Design and Preclinical Evaluation of a Novel Prostate-Specific Membrane Antigen Radioligand Modified with a Transthyretin Binder” (Cancers, 2024).

Legend:
[1] = parameters: method as in PMID 29684274; details: after 24 h incubation, same experimental conditions
PSMA = molecular target: T1, PSMA (Homo sapiens, UniProt Q04609); parameters: method as in PMID 32042329; details: read-out: PSMA-binding affinity KD
T1 construct: expressed in transfected cells; host or cells: PC-3 PIP cells (from Prof. Martin Pomper, Johns Hopkins)

[2] = undiluted blood plasma
[3] = test system: PC-3 PIP/flu tumor-bearing mice; details: 24 h p.i.

T1 sequence (Q04609 whole entry): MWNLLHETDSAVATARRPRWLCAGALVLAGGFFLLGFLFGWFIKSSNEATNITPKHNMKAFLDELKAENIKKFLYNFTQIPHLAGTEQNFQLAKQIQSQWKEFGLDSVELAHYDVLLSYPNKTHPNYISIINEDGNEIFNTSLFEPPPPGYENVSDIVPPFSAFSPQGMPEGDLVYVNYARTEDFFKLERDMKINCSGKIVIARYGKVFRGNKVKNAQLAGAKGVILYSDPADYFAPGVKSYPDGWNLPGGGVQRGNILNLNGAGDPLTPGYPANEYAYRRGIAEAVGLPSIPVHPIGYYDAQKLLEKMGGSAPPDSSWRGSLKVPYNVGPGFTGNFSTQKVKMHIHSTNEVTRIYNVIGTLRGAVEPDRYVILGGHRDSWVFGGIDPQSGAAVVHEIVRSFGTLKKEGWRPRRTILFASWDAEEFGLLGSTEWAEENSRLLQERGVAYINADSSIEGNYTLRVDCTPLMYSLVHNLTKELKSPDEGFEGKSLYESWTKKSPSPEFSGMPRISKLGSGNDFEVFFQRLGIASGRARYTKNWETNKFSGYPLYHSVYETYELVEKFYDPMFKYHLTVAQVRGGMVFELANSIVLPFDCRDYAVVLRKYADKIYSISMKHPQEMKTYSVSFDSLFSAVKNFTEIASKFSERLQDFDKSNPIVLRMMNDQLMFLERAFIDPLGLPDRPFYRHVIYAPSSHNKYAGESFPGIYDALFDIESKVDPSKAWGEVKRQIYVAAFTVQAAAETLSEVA

[^177Lu]Lu-PSMA-617
intact radioligand [1]: < 2% | logD: −4.4 | Kd (PSMA): 13 ± 1 nM | fraction bound to serum proteins [2]: 59 ± 1% | uptake in PC-3 PIP xenografts [3]: 37 ± 6 % IA/g
